Source: patent publication US12329160B2, “Activated ferrate compositions” (THE TEXAS A & M UNIVERSITY SYSTEM, priority 2018, dated 2025)

Assays:
[1] = Elimination of six pharmaceuticals by Fe^VI—S2O3^2− in lake water (Lake Bryan); format: physicochemical; settings: mixture 1.0 μM each, [S2O3^2−]:[Fe^VI] 0.125, Fe^VI 150.0 μM, pH 8.0, 30 seconds
Description: (§1) The contaminants are: carbamazepine (CMZ), diclofenac (DCF), enrofloxacin (ENR), propranolol (PPN), sulfadimethoxine (SMX), and trimethoprim (TMP). Experimental conditions: [Each contaminant]0 in mixture of samples=1.0 μM, [Fe^VI]0:[Total contaminants]=25:1, [S2O3^2−]0:[Fe^VI]0=0.125, [Fe^VI]0=150.0 μM, [S2O3^2−]0=18.75 μM, pH=8.00±0.05, reaction time=30 s).
(§2) The stock solutions of these contaminants (10.0 μM) were prepared in 10.0 mM Na2HPO4, and diluted using the same buffer solution before the removal experiments. […] Solutions of Fe^VI were prepared by adding K2FeO4 powders to 5.0 mM Na2HPO4/1.0 mM Na2B4O7.10H2O buffer solution. The concentrations of Fe^VI were quantitatively measured using an UV-visible spectrometer at a wavelength of 510 nm with a molar absorption coefficient of ε510 nm=1150 M^−1 cm^−1: The pH value of the contaminant solutions was adjusted to 7.50 via the addition of diluted H3PO4 before mixing with Fe^VI solution to achieve the desired reaction pH at 8.00±0.04. Methanol and phosphoric acid (85%) of high performance liquid chromatography (HPLC) grade were used in testing. 5,5-dimethyl-1-pyrroline-N-oxide (DMPO) was used as the spin trap reagent for identifying the possible reactive inorganic radicals (e.g., .OH and/or SO4.^−) in the oxidation system. All the other chemicals (e.g., hydroxylamine and permanganate) were provided from commercial sources and used without further purification. Two kinds of natural water samples were individually obtained from Brazos River (N 30°42′33″, E 96°28′5″, College Station, Texas) and Lake Bryan (N 30°33′30″, E 96°25′25″, Bryan, Texas). […] These real water samples were filtered through 0.45 μm hydrophilic PVDF membrane to remove the insoluble particles before spiking the contaminant mixtures (1.0 μM for each compound). 20.0 mM borate buffer was used to stabilize the solution pH of the real waters at 8.00±0.04. All the other solutions were prepared using the ultrapure water (resistivity >18 MΩ cm^−1).
(§3) Experiments were conducted in a series of 100 mL glass jars under constant stirring rate (400 rpm) with a magnetic stirrer. Oxidation of each contaminant or their mixtures by Fe^VI with or without S2O3^2− was initiated by mixing equal solution volumes of 10 mL, and the final reaction solutions were kept at 8.00±0.04. The concentration of Fe^VI was maintained at 100.0 μM, and the ratios of [S2O3^2−]:[Fe^VI] in the system were varied from 0 to 5.0 for aqueous removal of TMP (5.0 μM). […] After 30 seconds of oxidation, 20.0 μL NH2OH solution (1 M) was added to quench the reactions. Samples were transferred into high performance liquid chromatography (HPLC) vials, and were subsequently analyzed using the HPLC method. Similar experiments using TMP as a target contaminant were also performed by replacing Fe^VI with Mn^VII or chlorine under the same conditions. All experiments were carried out at room temperature, and were at least in triplicates.
For the chromatographic separation of six contaminant mixtures (CMZ, DCF, ENR, PPN, SMX, and TMP), a solvent gradient method was used with flow rate of 0.8 mL/min. This method started with 35% B (0-7.5 min), followed by 35% B to 55% B (7.5-10.5 min), 55% B to 70% B (10.5-15.5 min), 70% B to 90% B (15.5-18.5 min), 90% B (18.5-25.0 min), 90% B to 35% B (25.0-25.5 min) and post-equilibration at 35% B (25.5-33.0 min).

[2] = Oxidation of individual organic contaminants by Fe^VI with or without S2O3^2− in buffered ultrapure water, HPLC; format: physicochemical; settings: for partial oxidation by Fe^VI without S2O3^2−: ratio 25:1 [Fe^VI]:[contaminants], Fe^VI 100.0 μM, pH 8.00, 30 seconds
Description: To test liquid ferrate solutions using second approach, batch experiments were conducted in a series of 100 mL glass jars under constant stirring rate (400 rpm) with a magnetic stirrer. Oxidation of each micropollutant or their mixtures by Fe^VI with or without S2O3^2− was initiated by mixing equal solution volumes of 10 mL, and the final reaction solutions were kept at 8.00±0.04.
as §2
as §3, with “conditions.” for “conditions. All experiments were carried out at room temperature, and were at least in triplicates.”

[3] = Elimination of six pharmaceuticals by Fe^VI—S2O3^2− in river water (Brazos River); format: physicochemical; settings: mixture 1.0 μM each, [S2O3^2−]:[Fe^VI] 0.125, Fe^VI 150.0 μM, pH 8.0, 30 seconds
Description: as §1
The stock solutions of these contaminants (10.0 μM) were prepared in 10.0 mM Na2HPO4, and diluted using the same buffer solution before the removal experiments. Potassium ferrate (K2FeO4, purity >90%) was prepared using a wet chemical synthesis method. Solutions of Fe^VI were prepared by adding K2FeO4 powders to 5.0 mM Na2HPO4/1.0 mM Na2B4O7.10H2O buffer solution. The concentrations of Fe^VI were quantitatively measured using an UV-visible spectrometer at a wavelength of 510 nm with a molar absorption coefficient of ε510 nm=1150 M^−1 cm^−1: The pH value of the contaminant solutions was adjusted to 7.50 via the addition of diluted H3PO4 before mixing with Fe^VI solution to achieve the desired reaction pH at 8.00±0.04. […] No test contaminants were detected in these waters, and the basic physico-chemical parameters are pH, 8.36, UV254, 0.071 and UV400, 0.006 for river water; and pH, 9.43, UV254, 0.202, and UV400, 0.017 for lake water. […]

[4] = pH 8.0; cited from earlier work

| Molecule | removal by Fe^VI—S2O3^2− in lake water [1] | partial oxidation by Fe^VI without S2O3^2− [2] | oxidation of TMP by Fe^VI—S2O3^2− ([2]; molar ratio [S2O3^2−]:[Fe^VI] 0.125, TMP 5.0 μM, Fe(VI) 100.0 μM, pH 8.0, 30 seconds) | elimination of TMP by Fe^VI—S2O3^2− ([2]; molar ratio [S2O3^2−]:[Fe^VI] 5.0, TMP 5.0 μM, Fe(VI) 100.0 μM, pH 8.0, 30 seconds) | oxidation of TMP by Fe^VI ([2]; without S2O3^2−, TMP 5.0 μM, Fe(VI) 100.0 μM, pH 8.0, quenched after 30 seconds, oxygenated) | removal by Fe^VI—S2O3^2− in river water [3] | k, reactivity of Fe^VI with DMSO [4] |
| --- | --- | --- | --- | --- | --- | --- | --- |
| COc1cc(NS(=O)(=O)c2ccc(N)cc2)nc(OC)n1 [SMX, Sulfadimethoxine] | about 80% | 47.27% | – | – | – | – | – |
| COc1cc(Cc2cnc(N)nc2N)cc(OC)c1OC [TMP, Trimethoprim] | about 80% | 22.04% | 100% | about 4% | about 16% | – | – |
| NC(=O)N1c2ccccc2C=Cc2ccccc21 [CMZ, Carbamazepine] | about 50% | 25.11% | – | – | – | about 80% | – |
| CCN1CCN(c2cc3c(cc2F)c(=O)c(C(=O)O)cn3C2CC2)CC1 [ENR, Enrofloxacin] | about 50% | 41.02% | – | – | – | about 80% | – |
| O=C(O)Cc1ccccc1Nc1c(Cl)cccc1Cl [DCF, Diclofenac] | about 80% | 20.85% | – | – | – | – | – |
| CC(C)NCC(O)COc1cccc2ccccc12 (stereo not drawn) [PPN, Propranolol] | about 80% | 32.46% | – | – | – | – | – |
| Potassium ferrate [Fe^VI] | – | – | – | – | – | – | about 1 M^−1 s^−1 |
